Test results reported in patent US20060062758A1, “Tight junction modulator peptide PN159 for enhanced mucosal delivery of therapeutic compounds” (Nastech Pharmaceutical Comapny Inc., priority 2004, published 2006).
Non-standard residues stand in square brackets, D forms with d. No end group written: not given here.

Tests used:
[1] = system: EpiAirway™ Cell Membrane (mucosal epithelial cell layer); assay: Transepithelial electrical resistance (TER), EpiAirway in vitro epithelial tissue model; assay type: cell-based; settings: for Relative TER Decrease: Table 8, amino acid substitutions; for Relative TER Decrease / TER(x)/TER(159) +/− SEM / TER(x)/TER(159) +/− SEM*: relative to PN159; for TER(x)/TER(159) +/− SEM: Table 6, D-amino acid substitutions; for TER(x)/TER(159) +/− SEM*: mean values from multiple repeats
Excerpt: One “kit” consists of 24 units.
A. Respiratory airway epithelial cells form tight junctions in vivo as well as in vitro, and thereby restrict the flow of solutes across the tissue. These junctions confer a transepithelial resistance of several hundred ohms×cm^2 in excised airway tissues. In the MatTek EpiAirway™ units, the transepithelial electrical resistance (TER) is reported by the manufacturer to be routinely around 1000 ohms×cm^2. […] The porous membrane-bottomed units without cells, conversely, provide only minimal transmembrane resistance (approximately 5-20 ohms×cm^2).
B. Accurate determinations of TER require that the electrodes of the ohmmeter be positioned over a significant surface area above and below the membrane, and that the distance of the electrodes from the membrane be reproducibly controlled. The method for TER determination recommended by MatTek and employed for all experiments herein employs an “EVOM”™ epithelial voltohmmeter and an “ENDOHM”™ tissue resistance measurement chamber from World Precision Instruments, Inc., Sarasota, Fla.
D. Determinations of TER are made with 1.5 mL of PBS in the chamber and 350 μL of PBS in the membrane-bottomed unit being measured. The top electrode is adjusted to a position just above the membrane of a unit containing no cells (but containing 350 μL of PBS) and then fixed to ensure reproducible positioning. The resistance of a cell-free unit is typically 5-20 ohms×cm^2 (“background resistance”).
G. The unit is gently blotted free of excess PBS on its exterior surface only before being placed into the chamber (containing a fresh 1.5 mL aliquot of PBS). An aliquot of 350 μL PBS is added to the unit before the top electrode is placed on the chamber and the TER is read on the EVOM meter.
I. The units are read in the following sequence: all sham-treated controls, followed by all formulation-treated samples, followed by a second TER reading of each of the sham-treated controls. All TER values are reported as a function of the surface area of the tissue.
TER was calculated as: TER=(R1−Rb)×A Where R1 is resistance of the insert with a membrane, Rb is the resistance of the blank insert, and A is the area of the membrane (0.6 cm^2). The effect of pharmaceutical formulations comprising intranasal delivery-enhancing agents, for example, permeabilizing peptides as measured by TER across the EpiAirway™ Cell Membrane (mucosal epithelial cell layer). Permeabilizing peptides are applied to the EpiAirway™ Cell Membrane at a concentration of 1.0 mM. A decrease in TER value relative to the control value (control=approximately 1000 ohms-cm^2; normalized to 100.) indicates a decrease in cell membrane resistance and an increase in mucosal epithelial cell permeability.
The formulation pH was fixed at 4.5.

[2] = system: EpiAirway™ Cell Membrane (mucosal epithelial cell layer); assay: Permeation kinetics across the in vitro epithelial tissue model; settings: for permeability enhancement (in words): PN159 analogues compared with PN159; for Perm(x)/Perm(159) +/− SEM: Table 6, D-amino acid substitutions; for Perm(x)/Perm(159) +/− SEM / Perm(x)/Perm(159) +/− SEM*: relative to PN159; for Perm(x)/Perm(159) +/− SEM*: mean values from multiple repeats
Experimental: The EpiAirway™ system was developed by MatTek Corp (Ashland, Mass.) as a model of the pseudostratified epithelium lining the respiratory tract. The epithelial cells are grown on porous membrane-bottomed cell culture inserts at an air-liquid interface, which results in differentiation of the cells to a highly polarized morphology. The apical surface is ciliated with a microvillous ultrastructure and the epithelium produces mucus (the presence of mucin has been confirmed by immunoblotting). The inserts have a diameter of 0.875 cm, providing a surface area of 0.6 cm^2. The cells are plated onto the inserts at the factory approximately three weeks before shipping. One “kit” consists of 24 units.
A. A “kit” of 24 EpiAirway™ units can routinely be employed for evaluating five different formulations, each of which is applied to quadruplicate wells. Each well is employed for determination of permeation kinetics (4 time points), transepithelial electrical resistance (TER). An additional set of wells is employed as controls, which are sham treated during determination of permeation kinetics, but are otherwise handled identically to the test sample-containing units for determinations of transepithelial resistance and viability.
B. In all experiments, the mucosal delivery formulation to be studied is applied to the apical surface of each unit in a volume of 100 μL, which is sufficient to cover the entire apical surface. An appropriate volume of the test formulation at the concentration applied to the apical surface (no more than 100 μL is generally needed) is set aside for subsequent determination of concentration of the active material by ELISA or other designated assay.
D. In order to minimize potential sources of error and avoid any formation of concentration gradients, the units are transferred from one 0.9 mL-containing well to another at each time point in the study. These transfers are made at the following time points, based on a zero time at which the 100 μL volume of test material was applied to the apical surface: 15 minutes, 30 minutes, 60 minutes, and 120 minutes.
F. At the completion of each time point, the medium is removed from the well from which each unit was transferred, and aliquotted into two tubes (one tube receives 700 μL and the other 200 μL) for determination of the concentration of permeated test material and, in the event that the test material is cytotoxic, for release of the cytosolic enzyme, lactate dehydrogenase, from the epithelium. These samples are kept in the refrigerator if the assays are to be conducted within 24 hours, or the samples are subaliquotted and kept frozen at −80° C. until thawed once for assays. Repeated freeze-thaw cycles are to be avoided.
EIA kit (p/n S-1178(EIAH6101) was purchased from Peninsula Laboratories Inc. (Division of BACHEM, San Carlos, Calif., 800-922-1516). 17×120 mm polypropylene conical tubes (p/n 352097, Falcon, Franklin Lakes, N.J.) were used for all sample preparations. Eight standards were used for PTH quantitation. The rest of the assay procedure was the same as the kit inserts.
The instant study was designed to evaluate the effect of PN159 itself or in combination with additional permeation enhancers on PTH permeation. The PN159 concentrations evaluated are 25, 50, and 100 μM. The additional permeation enhancers are 45 mg/ml M-β-CD, 1 mg/ml DDPC, and 1 mg/ml EDTA. Sorbitol was used as a tonicifier (146-190 mM) to adjust the osmolarity of formulations to 220 mOsm/kg. The formulation pH was fixed at 4.5. PTH was chosen as a model peptide in this example. 2 mg/ml PTH was combined with PN159 with or without additional permeation enhancers. The combination was tested using an in vitro epithelial tissue model to monitor PTH permeation, transepithelial electrical resistance (TER), and the cytotoxicity of the formulation by LDH assay.
The effect of PN159 on permeation of MC-4RA was evaluated in this study.

With “NH2-KLAWKLAWKALKAAWKLA-amide (KLAWKLAWKALKAAWKLA-NH2) [PN028, Three Tryptophan]” the “Relative TER Decrease” value [1] was 0.7.
In the case of “NH2-LKLLKKLLKKLLKLL-amide (H-LKLLKKLLKKLLKLL-NH2) [PN406, Leucine and Lysine rich]”, the “Relative TER Decrease” value [1] is reported as 0.9.
For “NH2-KLAWKLALKALKAAWKLA-amide (H-KLAWKLALKALKAAWKLA-NH2) [PN0427, Two Tryptophan]”, the “Relative TER Decrease” value [1] was 1.0.
For “NH2-LKlLKkLlkKLLkLL-amide (H-LK[dL]LK[dK]L[dL][dK]KLL[dK]LL-NH2) [PN407, Leucine and Lysine rich with D-subs]”, the “permeability enhancement (in words)” value [2] was “minor but statistically significant improvement on permeability”, the “Perm(x)/Perm(159) +/− SEM” value [2] was 1.20 +/− 0.05 and the “TER(x)/TER(159) +/− SEM” value [1] was 1.08 +/− 0.01. For the same substance, the “Relative TER Decrease” value [1] was 1.1.
In the case of “NH2-KALAALLKKLAKLLAALK-amide (H-KALAALLKKLAKLLAALK-NH2) [PN444, 180° face]”, the “Perm(x)/Perm(159) +/− SEM*” value ([2]; Table 9, hydrophobic faces) is reported as 0.41 +/− 0.08 and the “TER(x)/TER(159) +/− SEM*” value ([1]; Table 9, hydrophobic faces) is reported as 0.82 +/− 0.05.
“NH2-LKTLATALTKLAKTLTTL-amide (H-LKTLATALTKLAKTLTTL-NH2) [PN443, Threonine]” was tested, and the “Relative TER Decrease” value [1] was 0.3.
For “NH2-KLALKLALKALKAALK-amide (H-KLALKLALKALKAALK-NH2) [PN418, Shortened 16 aa]”, the “Perm(x)/Perm(159) +/− SEM*” value ([2]; Example 7, length changes) was 0.64 and the “TER(x)/TER(159) +/− SEM*” value ([1]; Example 7, length changes) was 1.05 +/− 0.05.
“NH2-KLaLKlALkAlkAALkLA-amide (H-KL[dA]LK[dL]AL[dK]A[dL][dK]AAL[dK]LA-NH2) [PN434, D-substituted (random D substitution)]” was tested, and the “permeability enhancement (in words)” value [2] was “null activities”, the “Perm(x)/Perm(159) +/− SEM” value [2] was 0.02 +/− 0.00 and the “TER reduction (in words)” value ([1]; PN159 analogues compared with PN159) was “null activities”. The “TER(x)/TER(159) +/− SEM” value [1] was 0.12 +/− 0.01.
“NH2-KLALKLALKALKAALKLALKLA-amide (H-KLALKLALKALKAALKLALKLA-NH2) [PN420, Lengthened 22 aa]” was tested, and the “Perm(x)/Perm(159) +/− SEM*” value ([2]; Example 7, length changes) was 0.24 and the “TER(x)/TER(159) +/− SEM*” value ([1]; Example 7, length changes) was 0.77 +/− 0.05.
For “NH2-KLALKLALKALKAALKLALK-amide (H-KLALKLALKALKAALKLALK-NH2) [PN419, Lengthened 20 aa]”, the “Perm(x)/Perm(159) +/− SEM*” value ([2]; Example 7, length changes) was 0.74 and the “TER(x)/TER(159) +/− SEM*” value ([1]; Example 7, length changes) was 1.23 +/− 0.01.
With “NH2-KLALKLALKALKAA-amide (H-KLALKLALKALKAA-NH2) [PN417]” the “Perm(x)/Perm(159) +/− SEM*” value ([2]; Example 7, length changes) was 0.04.
“NH2-klalklalkalkaalkla-amide (H-[dK][dL][dA][dL][dK][dL][dA][dL][dK][dA][dL][dK][dA][dA][dL][dK][dL][dA]-NH2; SMILES CC(C)C[C@@H](NC(=O)[C@H](N)CCCCN)C(=O)N[C@H](C)C(=O)N[C@H](CC(C)C)C(=O)N[C@H](CCCCN)C(=O)N[C@H](CC(C)C)C(=O)N[C@H](C)C(=O)N[C@H](CC(C)C)C(=O)N[C@H](CCCCN)C(=O)N[C@H](C)C(=O)N[C@H](CC(C)C)C(=O)N[C@H](CCCCN)C(=O)N[C@H](C)C(=O)N[C@H](C)C(=O)N[C@H](CC(C)C)C(=O)N[C@H](CCCCN)C(=O)N[C@H](CC(C)C)C(=O)N[C@H](C)C(N)=O) [PN393, All D-substituted PN159]” was tested, and the “Perm(x)/Perm(159) +/− SEM” value [2] was 1.02 +/− 0.16 and the “TER(x)/TER(159) +/− SEM” value [1] was 1.06 +/− 0.00.
In the case of “NH2-KALKLKAALALLAKLKLA-amide (H-KALKLKAALALLAKLKLA-NH2) [PN424, non-amphipathic]”, the “Perm(x)/Perm(159) +/− SEM*” value ([2]; Table 9, hydrophobic faces) is reported as 0.20 +/− 0.04 and the “TER(x)/TER(159) +/− SEM*” value ([1]; Table 9, hydrophobic faces) is reported as 0.59 +/− 0.07.
With “NH2-KLAWKLALKALKAALKLA-amide (H-KLAWKLALKALKAALKLA-NH2) [PN0425, Single Tryptophan]” the “Relative TER Decrease” value [1] was 1.0.
In the case of “NH2-RLAWRLALRALRAALRLA-amide (H-RLAWRLALRALRAALRLA-NH2) [PN395, Argenine and Single Tryptophan]”, the “Relative TER Decrease” value [1] is reported as 0.8.
For “NH2-KLALKLALKALKAALKLALKLALK-amide (H-KLALKLALKALKAALKLALKLALK-NH2) [PN421, Lengthened 24 aa]”, the “Perm(x)/Perm(159) +/− SEM*” value ([2]; Example 7, length changes) was 0.17 and the “TER(x)/TER(159) +/− SEM*” value ([1]; Example 7, length changes) was 0.74 +/− 0.11.
With “NH2-RLALRLALRALRAALRLA-amide (H-RLALRLALRALRAALRLA-NH2) [PN394, Argenine]” the “Relative TER Decrease” value [1] was 0.7.
In the case of H-KLALKLALKLNLKAALKLA-NH2 [PN448], the “Relative TER Decrease” value [1] is reported as 0.4.
